# Measured values published in article PMC8073907, “Peptide targeting of lysophosphatidylinositol-sensing GPR55 for osteoclastogenesis tuning” (Cell Communication and Signaling : CCS, 2021).
# Columns and labels:
# [1] = tested on: osteoclasts derived from RAW264.7 cells; test: Osteoclast functional assay (bone resorption on bovine cortical bone slices); format: cell-based, murine; conditions: 0.5 µM CID16020046, 15 ng/mL RANKL, 7 days
# Protocol: RAW264.7 cells were plated in differentiation medium at a density of 1250 cells/100 µL on 0.2-mm-thick bovine cortical bone slices (BoneSlices.com, Jelling, Denmark) in 96-well plates. Six hours later, 100 µL differentiation medium with RANKL (15 ng/mL, final concentration) was added, in the presence of a carrier or in combination with the GPR55 modulators. The media with the different compounds were replaced every 48 h, for a total of 7 days. At the end of this period, the cells were detached with a 10% bleach solution, and the resorption excavations were visualised by using Toluidine Blue staining (Sigma-Aldrich). Images of the resorption areas were obtained under the microscope (SW380T; Swift Optical Instruments, Inc., TX, USA) using the 10 × objective, and acquired with a digital camera (Swiftcam SC1003; Swift Optical Instruments, Inc.). The total eroded surface underwent blinded quantification using ImageJ (NIH), and was subdivided into pit and trench surfaces. Pits were characterised as round excavations with well-defined edges where the ratio between length and width was < 2.0. Trenches were defined as elongated excavations with well-defined edges whose length was at least twice the wide, and with clear signs of continued resorption. The prevalence of trenches was calculated as a proportion (%) of the trench surface relative to the total eroded surface.
# [2] = tested on: GPR55; conditions: ref [55]; cited from earlier work
# Protocol: GPR55 involvement in osteoclast functions was directly assessed using in-vitro assays of bone resorbing activity. As the transient silencing by GPR55-specific siRNAs in precursor cells was not applicable to this long-term differentiation assay, pharmacological perturbation of GPR55 was carried out with only the most specific antagonists (ML-191, CID16020046) and LPI. RAW264.7 cells were plated on cortical bone slices and RANKL-differentiated for 7 days in the absence or presence of the different GPR55 regulators. At the end of the differentiation, the cells were detached and the resorbing area ...
# [3] = tested on: RAW264.7 cells; test: RANKL-induced transcription of osteoclastogenesis markers in RAW264.7 cells (real-time PCR); format: cell-based, murine; conditions: RANKL 15 ng/mL, 72 h, 1 µM soybean LPI
# Protocol: Total RNA was extracted using RNeasy isolation kits, cDNAs were obtained using QuantiTect Reverse Transcription kits, and real-time PCRs were performed with QuantiTect SYBR Green PCR kits (all from Qiagen, Hilden, Germany), according to the manufacturer instructions. The primers used for the real-time PCRs and their annealing temperatures are listed in the Additional file 1: Table S1. Human hypoxanthine phosphoribosyltransferase 1 (HPRT1) or murine β2-microglobulin were followed as housekeeping genes. The real-time PCR programme consisted of an initial 15 min at 95 °C, and then 45 cycles as follows: 94 °C for 15 s, annealing temperature of each primer for 30 s, and 72 °C for 30 s. The real-time PCR machine used was a LightCycler 480 Instrument II (Roche, Indianapolis, IN, USA).
# For transient interference of Gpr55, RAW264.7 cells were plated at 6 × 10^5 cells/well in six-well plates in growth medium without antibiotics. Twenty-four hours later, the cells were transfected with 250 pmol/well non-targeting small-interfering (si)RNAs (si-NT; siGENOME siRNA Pool #2; D-001206-14; Dharmacon, Chicago, IL, USA) or Gpr55-specific siRNAs (si-GPR55; siGENOME mouse GPR55 SMART pool; M-043590-01; Dharmacon) using Lipofectamine LTX and Plus Reagent, according to the manufacturer instructions. Twenty-four hours later, the cells were plated for the different assays or for RNA extraction. The efficiency of interference was monitored by real-time PCR after 72 h of interference, using the primers listed in the Additional file 1: Table S1. β2-microglobulin was followed as a housekeeping gene.
# For the osteoclastogenesis in-vitro assay, RAW264.7 cells were plated in differentiation medium (α-MEM with 10% heat-inactivated FBS, 2 mM L-glutamine, 100 U/mL penicillin, and 100 ug/mL streptomycin) at a density of 5 × 10^3 cells/well in 24-well plates on coverslips for morphological analysis, or at 2 × 10^4 cells/well in six-well plates for RNA extraction. Twenty-four hours later and every 48 h, the medium was replaced and the cells were treated with 15–30 ng/mL RANKL with DMSO and/or PBS as carriers, or with GPR55 antagonists/ agonists (0.5 µM ML-191, 30 µM O1918, 0.5 µM CBD, 0.5 μM CID16020046 1 µM soybean LPI, 1 μM ML-184), or with the peptides (150 nM peptide-P1; or the irrelevant peptide, Irr_P). Twenty-four hours after the last addition, the cells were fixed with 4% paraformaldehyde for morphological analyses or harvested for RNA extraction (see above).
structure (smiles),measurement,setting,value
Cc1ccc(-c2n[nH]c3c2C(c2cccc(O)c2)N(c2ccc(C(=O)O)cc2)C3=O)cc1 (centres unmarked) [CID16020046],inhibition of RANKL-promoted osteoclast degrading activity,[1],only slightly inhibited
same,reduction of relative trench contribution compared to RANKL,[1]; p < 0.05,about 30%
same,mode of action on GPR55,[2],GPR55 inverse agonist
same,reduction of LPI-stimulated Ctr transcription,[3]; 0.5 µM CID16020046,50%
same,block of LPI-stimulated Nfatc1 transcription,[3]; 0.5 µM ML-191 or 0.5 µM CID16020046,completely blocked
